Data as given in BindingDB's records for doi:10.1016/j.bmcl.2005.03.008 (Abbott Laboratories, 2005).

Biological target: T1, Dimer of Gag-Pol polyprotein [489-587] (Human immunodeficiency virus 1, UniProt P12497)
T1 construct: 489-587
Test: Enzyme Inhibition Assay
Settings: pH 4.5; 30 °C
Method: HIV-1 protease inhibition was measured by a fluorescence assay using recombinant HIV-1 protease. […] The percent inhibition of enzyme activity in the presence of inhibitor was determined by comparing inhibition rates with uninhibited control reactions. All IC50 values were determined with a range of inhibitor concentrations using the relation IC50 = (100/ percent inhibition - 1) x inhibitor concentration.

Cc1nc(CN2CCN([C@H](C(=O)N[C@@H](Cc3ccccc3)[C@H](O)CN(CC(C)C)S(=O)(=O)c3cccc(CN=O)c3)C(C)C)C2=O)cs1 [(2S)-N-[(2S,3R)-3-hydroxy-4-({3-[(1E)-(hydroxyimino)methyl]benzene}(2-methylpropyl)sulfonamido)-1-phenylbutan-2-yl]-3-methyl-2-{3-[(2-methyl-1,3-thiazol-4-yl)methyl]-2-oxoimidazolidin-1-yl}butanamide]
IC50: 16 nM

CO/N=C/c1ccc(S(=O)(=O)N(CC(C)C)C[C@@H](O)[C@H](Cc2ccccc2)NC(=O)[C@H](C(C)C)N2CCN(Cc3csc(C)n3)C2=O)cc1 [(2S)-N-[(2S,3R)-3-hydroxy-4-({4-[(1E)-(methoxyimino)methyl]benzene}(2-methylpropyl)sulfonamido)-1-phenylbutan-2-yl]-3-methyl-2-{3-[(2-methyl-1,3-thiazol-4-yl)methyl]-2-oxoimidazolidin-1-yl}butanamide]
IC50: 653 nM

Cc1nc(CN2CCN([C@H](C(=O)N[C@@H](Cc3ccccc3)[C@H](O)CN(CC(C)C)S(=O)(=O)c3ccc(CN=O)cc3)C(C)C)C2=O)cs1 [(2S)-N-[(2S,3R)-3-hydroxy-4-({4-[(1E)-(hydroxyimino)methyl]benzene}(2-methylpropyl)sulfonamido)-1-phenylbutan-2-yl]-3-methyl-2-{3-[(2-methyl-1,3-thiazol-4-yl)methyl]-2-oxoimidazolidin-1-yl}butanamide]
IC50: 5 nM

Cc1nc(CN2CCN([C@H](C(=O)N[C@@H](Cc3ccccc3)[C@H](O)CN(CC(C)C)S(=O)(=O)c3ccc(CO)cc3)C(C)C)C2=O)cs1 [(2S)-N-[(2S,3R)-3-hydroxy-4-{[4-(hydroxymethyl)benzene](2-methylpropyl)sulfonamido}-1-phenylbutan-2-yl]-3-methyl-2-{3-[(2-methyl-1,3-thiazol-4-yl)methyl]-2-oxoimidazolidin-1-yl}butanamide]
IC50: 16 nM
